How the values were obtained:
[1] = biological target: T1, human cloned 5-HT2C receptor (Homo sapiens, UniProt P28335); test: In vitro binding affinity for 5-HT2C receptor (radioligand binding); settings: human cloned 5-HT2C receptor, radioligand binding; read-out: h-5HT2C (converted)
T1 construct: expressed in transfected cells; host or cells: CHO cells
T1 sequence (P28335 33-458): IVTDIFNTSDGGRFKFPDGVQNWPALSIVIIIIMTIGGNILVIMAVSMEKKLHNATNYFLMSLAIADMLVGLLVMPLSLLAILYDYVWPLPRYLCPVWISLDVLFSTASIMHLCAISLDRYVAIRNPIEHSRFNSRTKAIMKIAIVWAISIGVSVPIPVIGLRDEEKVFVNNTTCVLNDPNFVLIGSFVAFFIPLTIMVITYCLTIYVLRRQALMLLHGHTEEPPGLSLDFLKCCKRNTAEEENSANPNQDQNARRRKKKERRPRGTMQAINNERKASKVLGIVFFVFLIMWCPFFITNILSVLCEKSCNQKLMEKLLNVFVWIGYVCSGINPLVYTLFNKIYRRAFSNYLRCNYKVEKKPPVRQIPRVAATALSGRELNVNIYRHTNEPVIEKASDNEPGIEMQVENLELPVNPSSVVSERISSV
Procedure: (§1) During the incubation, the radioligands bind to the receptor. When equilibrium of binding is reached, the receptor bound radioactivity is separated from the non-bound radioactivity, and the receptor bound activity is counted. The interaction of the test compounds with the receptors is assessed in competition binding experiments. Various concentrations of the test compound are added to the incubation mixture containing the tissue preparation and the radioligand. Binding of the radioligand will be inhibited by the test compound in proportion to its binding affinity and its concentration.

[2] = biological target: T2, human cloned 5-HT2A receptor (Homo sapiens, UniProt P28223); test: In vitro binding affinity for 5-HT2A receptor (radioligand binding); settings: human cloned 5-HT2A receptor, radioligand binding; read-out: h-5HT2A (converted)
T2 construct: expressed in transfected cells; host or cells: L929 cells
T2 sequence (P28223 whole entry): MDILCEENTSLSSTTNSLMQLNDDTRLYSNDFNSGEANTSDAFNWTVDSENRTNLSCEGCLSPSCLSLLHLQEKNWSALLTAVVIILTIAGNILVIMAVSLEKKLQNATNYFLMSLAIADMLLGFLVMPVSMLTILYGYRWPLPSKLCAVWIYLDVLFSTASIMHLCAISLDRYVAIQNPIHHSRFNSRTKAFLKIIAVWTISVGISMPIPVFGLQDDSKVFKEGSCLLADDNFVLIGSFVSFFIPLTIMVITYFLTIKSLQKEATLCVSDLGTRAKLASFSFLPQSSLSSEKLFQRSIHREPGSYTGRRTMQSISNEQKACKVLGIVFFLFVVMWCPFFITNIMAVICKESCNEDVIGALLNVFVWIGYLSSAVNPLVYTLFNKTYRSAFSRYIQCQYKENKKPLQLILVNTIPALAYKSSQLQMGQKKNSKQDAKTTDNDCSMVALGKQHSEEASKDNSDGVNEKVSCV
Procedure: as §1, with “concentration. The affinities of the compounds for the 5-HT2 receptors were measured by means of radioligand binding studies conducted with: (a) human cloned 5-HT2A receptor, expressed in L929 cells using [^125I]R91150 as radioligand and (b) human cloned 5-HT2C receptor, expressed in CHO cells using [^3H]mesulergine as radioligand.” for “concentration.”

[3] = biological target: T3, human Dopamine D2L receptor (Homo sapiens, UniProt P14416); test: In vitro binding affinity for human D2L receptor ([3H]Spiperone); settings: human D2L receptor-transfected CHO cell membranes, [3H]Spiperone; read-out: h-D2L (converted)
T3 construct: expressed in transfected cells; host or cells: CHO cells
T3 sequence (P14416 whole entry): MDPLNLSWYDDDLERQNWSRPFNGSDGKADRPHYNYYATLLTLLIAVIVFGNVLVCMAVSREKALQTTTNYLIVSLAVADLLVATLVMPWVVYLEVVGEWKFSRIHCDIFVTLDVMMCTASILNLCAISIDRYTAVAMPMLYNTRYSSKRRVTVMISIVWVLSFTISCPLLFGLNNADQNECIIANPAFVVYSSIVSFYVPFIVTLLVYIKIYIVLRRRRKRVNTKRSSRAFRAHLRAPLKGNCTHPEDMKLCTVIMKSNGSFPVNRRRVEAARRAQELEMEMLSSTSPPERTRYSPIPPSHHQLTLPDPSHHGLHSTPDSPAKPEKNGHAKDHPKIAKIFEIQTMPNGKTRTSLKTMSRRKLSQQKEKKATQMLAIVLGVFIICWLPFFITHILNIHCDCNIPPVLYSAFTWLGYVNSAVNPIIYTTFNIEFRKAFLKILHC
Procedure: Frozen membranes of human Dopamine D2L receptor-transfected CHO cells were thawed, briefly homogenised using an Ultra-Turrax T25 homogeniser and diluted in Tris-HCl assay buffer containing NaCl, CaCl2, MgCl2, KCl (50, 120, 2, 1, and 5 mM respectively, adjusted to pH 7.7 with HCl) to an appropriate protein concentration optimised for specific and non-specific binding. Radioligand [^3H]Spiperone (NEN, specific activity ˜70 Ci/mmol) was diluted in assay buffer at a concentration of 2 nmol/L. Prepared radioligand (50 μl), along with 50 μl of either the 10% DMSO control, Butaclamol (10^−6 mol/l final concentration), or compound of interest, was then incubated (30 min, 37° C.) with 400 μl of the prepared membrane solution. Membrane-bound activity was filtered through a Packard Filtermate harvester onto GF/B Unifilterplates and washed with ice-cold Tris-HCl buffer (50 mM; pH 7.7; 6×0.5 ml). Filters were allowed to dry before adding scintillation fluid and counting in a Topcount scintillation counter. Percentage specific bound and competition binding curves were calculated using S-Plus software (Insightful).

NET = biological target: T4, NET (Rattus norvegicus, UniProt Q9WTR4); test: In vitro determination of NET reuptake inhibition ([3H]Nixosetine binding, rat brain cortex); settings: rat brain cortex, [3H]Nixosetine; read-out: NET Reuptake Inhibition (converted)
T4 construct: Cortex from rat brain was collected and homogenised; from tissue; host or cells: rat brain cortex
T4 sequence (Q9WTR4 1-597): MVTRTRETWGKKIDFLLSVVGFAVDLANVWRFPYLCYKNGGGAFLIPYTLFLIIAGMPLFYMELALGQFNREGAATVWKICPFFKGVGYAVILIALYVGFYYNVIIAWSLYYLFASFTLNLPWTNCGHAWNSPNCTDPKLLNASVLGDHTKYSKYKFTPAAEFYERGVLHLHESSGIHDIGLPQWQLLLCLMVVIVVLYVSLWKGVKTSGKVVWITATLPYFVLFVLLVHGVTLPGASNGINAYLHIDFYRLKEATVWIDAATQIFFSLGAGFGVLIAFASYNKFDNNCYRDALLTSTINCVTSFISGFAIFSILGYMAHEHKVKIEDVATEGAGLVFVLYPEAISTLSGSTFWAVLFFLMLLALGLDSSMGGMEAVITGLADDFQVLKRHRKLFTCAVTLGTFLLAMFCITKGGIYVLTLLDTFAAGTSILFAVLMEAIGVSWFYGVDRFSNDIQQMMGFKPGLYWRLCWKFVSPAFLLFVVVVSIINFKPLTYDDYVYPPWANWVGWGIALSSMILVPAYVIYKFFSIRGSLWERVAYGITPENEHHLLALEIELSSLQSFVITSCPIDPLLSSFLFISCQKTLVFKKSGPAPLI
Procedure: Cortex from rat brain was collected and homogenised using an Ultra-Turrax T25 and a Dual homogeniser in ice-cold homogenising buffer containing Tris, NaCl and KCl (50 mM, 120 mM and 5 mM, respectively, pH 7.4) prior to dilution to an appropriate protein concentration optimised for specific and non-specific binding. […] Membrane-bound activity was detected by filtration through a Packard Filtermate harvester onto GF/B Unifilterplates, washed with ice-cold Tris-HCl buffer, containing NaCl and KCl (50 mM, 120 mM and 4 mM; pH 7.4; 6×0.5 ml). Filters were allowed to dry for 24 h before adding scintillation fluid. Scintillation fluid was allowed to saturate filters for 24 h before counting in a Topcount scintillation counter. Percentage specific bound and competition binding curves were calculated using S-Plus software (Insightful).

Structure (SMILES) | IC50 [1] [nM] | IC50 [2] [nM] | IC50 [3] [nM] | IC50 (NET) [nM]
CCS(=O)(=O)N1CCN(CC2CC3=C(O2)c2cc(F)ccc2Oc2ccccc23)CC1 (stereo not shown) [Compound 47] | 200 | 158 | 1260 | 398
O=C(C1CC1)N1CCN(CC2CC3=C(O2)c2cc(F)ccc2Oc2ccccc23)CC1 (stereo not shown) [Compound 58] | 158 | – | 1580 | 1580
COC(=O)CC(=O)N1CCN(CC2CC3=C(O2)c2cc(F)ccc2Oc2ccccc23)CC1 (stereo not shown) [Compound 60] | 79.4 | – | 2000 | 1580
O=C(Nc1ccccc1)N1CCN(CC2CC3=C(O2)c2cc(F)ccc2Oc2ccccc23)CC1 (stereo not shown) [Compound 84] | 50.1 | 31.6 | 1000 | –
O=C(Nc1ccc(F)cc1)N1CCN(CC2CC3=C(O2)c2cc(F)ccc2Oc2ccccc23)CC1 (stereo not shown) [Compound 86] | 39.8 | – | 251 | > 10000
COc1ccc(NC(=O)N2CCN(CC3CC4=C(O3)c3cc(F)ccc3Cc3ccccc34)CC2)cc1 (stereo not shown) [Compound 89] | 3.16 | 2 | 39.8 | –
COc1ccc(NC(=O)N2CCN(CC3CC4=C(O3)c3cc(F)ccc3Oc3ccccc34)CC2)cc1 (stereo not shown) [Compound 90] | 31.6 | 6.31 | 501 | –
COc1ccccc1NC[C@@H]1CC2=C(O1)c1cc(F)ccc1Cc1ccccc12 [Compound 106] | 31.6 | 6.31 | > 10000 | –
COC(=O)CC(=O)N(C)C[C@H]1CC2=C(O1)c1cc(F)ccc1Cc1ccccc12 [Compound 112] | 63.1 | 200 | – | 7940
CN(CC(=O)c1ccccc1)C[C@H]1CC2=C(O1)c1cc(F)ccc1Cc1ccccc12 [Compound 114] | 1.58 | 3.16 | 794 | –
CN(CC(N)=O)C[C@H]1CC2=C(O1)c1cc(F)ccc1Cc1ccccc12 [Compound 115] | 3.98 | 10 | 1260 | –
CN(CC(=O)N(C)C)C[C@H]1CC2=C(O1)c1cc(F)ccc1Cc1ccccc12 [Compound 117] | 2 | 10 | 2510 | –
CN(CC(=O)Nc1ccccc1)C[C@H]1CC2=C(O1)c1cc(F)ccc1Cc1ccccc12 [Compound 118] | 10 | 50.1 | 794 | –
COc1ccccc1NC(=O)CN(C)C[C@H]1CC2=C(O1)c1cc(F)ccc1Cc1ccccc12 [Compound 119] | 25.1 | 31.6 | 7940 | –
CNC(=O)/C=C/CN(C)C[C@H]1CC2=C(O1)c1cc(F)ccc1Cc1ccccc12 [Compound 123] | 2 | 2 | 50.1 | –
CN(Cc1nnn[nH]1)C[C@H]1CC2=C(O1)c1cc(F)ccc1Cc1ccccc12 [Compound 125] | 2.51 | 3.16 | 1260 | –
CNCC1CC2=C(O1)c1ccccc1Cc1cccc(F)c12 (stereo not shown) [Compound 132] | 3.98 | 10 | – | 63.1
CNCC1CC2=C(O1)c1ccccc1Cc1ccc(C#N)cc12 (stereo not shown) [Compound 133] | – | 25.1 | 2040 | 316
CNC(=N)CN(C)CC1CC2=C(O1)c1cc(F)ccc1Cc1ccccc12 (stereo not shown) [Compound 138] | 6.31 | 12.6 | 3160 | –
